Reference: publication PMC8453936, “Development and in vitro Profiling of Dual FXR/LTA4H Modulators” (Chemmedchem, 2021)
Like-named read-outs stand apart in the source and are kept apart here.

Key:
[1] = target: T1, full-length human FXR (Homo sapiens, UniProt Q96RI1); conditions: mean±S.E.M., n≥3, previously reported, cited from earlier work
T1 construct: coding for the full‐length human nuclear receptors FXR and RXRα; expressed in transfected cells; host or cells: HeLa
T1 sequence (Q96RI1 1-486): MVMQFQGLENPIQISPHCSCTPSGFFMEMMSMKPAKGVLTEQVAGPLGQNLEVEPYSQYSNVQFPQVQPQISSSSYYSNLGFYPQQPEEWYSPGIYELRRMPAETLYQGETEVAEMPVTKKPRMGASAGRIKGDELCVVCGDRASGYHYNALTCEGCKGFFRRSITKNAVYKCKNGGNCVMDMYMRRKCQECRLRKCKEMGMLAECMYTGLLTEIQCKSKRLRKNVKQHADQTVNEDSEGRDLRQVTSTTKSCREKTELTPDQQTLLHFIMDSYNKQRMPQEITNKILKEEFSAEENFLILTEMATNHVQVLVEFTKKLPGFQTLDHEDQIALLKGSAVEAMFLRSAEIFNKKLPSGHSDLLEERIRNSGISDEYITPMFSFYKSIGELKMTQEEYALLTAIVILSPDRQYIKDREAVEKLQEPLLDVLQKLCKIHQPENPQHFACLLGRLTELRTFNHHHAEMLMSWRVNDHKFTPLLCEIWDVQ
T1 sequence (P19793 1-462 partner): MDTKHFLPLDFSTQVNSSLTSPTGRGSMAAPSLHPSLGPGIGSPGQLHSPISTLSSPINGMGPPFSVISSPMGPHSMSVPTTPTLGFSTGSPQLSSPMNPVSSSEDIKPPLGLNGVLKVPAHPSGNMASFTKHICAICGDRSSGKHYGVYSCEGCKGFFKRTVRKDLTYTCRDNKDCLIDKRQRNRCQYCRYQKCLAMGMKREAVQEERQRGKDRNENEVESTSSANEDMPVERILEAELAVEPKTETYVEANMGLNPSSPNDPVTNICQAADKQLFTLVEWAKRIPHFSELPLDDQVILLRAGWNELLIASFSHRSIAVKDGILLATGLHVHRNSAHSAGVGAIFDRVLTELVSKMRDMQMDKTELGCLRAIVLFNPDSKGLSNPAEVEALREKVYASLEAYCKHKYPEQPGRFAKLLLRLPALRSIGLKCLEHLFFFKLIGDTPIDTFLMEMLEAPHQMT

[2] = target: T2, recombinant human LTA4H (Homo sapiens, UniProt P09960); conditions: for LTA4H max. inhib.: LTA4H inhibition at the highest tested concentration (up to 100 μM), mean±S.E.M., n=3
T2 sequence (P09960 1-611): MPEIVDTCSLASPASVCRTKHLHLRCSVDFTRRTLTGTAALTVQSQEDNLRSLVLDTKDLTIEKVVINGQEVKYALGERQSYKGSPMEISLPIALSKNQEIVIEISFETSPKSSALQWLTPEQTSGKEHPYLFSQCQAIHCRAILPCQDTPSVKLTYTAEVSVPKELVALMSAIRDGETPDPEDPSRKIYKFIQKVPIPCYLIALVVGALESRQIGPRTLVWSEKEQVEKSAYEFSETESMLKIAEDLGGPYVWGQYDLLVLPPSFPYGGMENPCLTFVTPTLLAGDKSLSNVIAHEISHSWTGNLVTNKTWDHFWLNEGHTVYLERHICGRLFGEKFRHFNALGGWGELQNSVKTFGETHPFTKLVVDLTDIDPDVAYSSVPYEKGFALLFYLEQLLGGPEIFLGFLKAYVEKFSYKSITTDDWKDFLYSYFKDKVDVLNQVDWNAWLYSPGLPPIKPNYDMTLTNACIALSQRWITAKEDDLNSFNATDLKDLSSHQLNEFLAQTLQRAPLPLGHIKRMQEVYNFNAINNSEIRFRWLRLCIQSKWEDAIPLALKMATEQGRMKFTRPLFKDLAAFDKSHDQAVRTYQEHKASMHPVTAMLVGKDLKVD
Excerpt: FXR modulation by 3–20 was characterized in a cellular (HeLa, transiently transfected) full‐length FXR reporter gene assay employing the human FXR response element from the promoter region of bile salt export protein (BSEP) to govern firefly luciferase expression as reporter gene.[26, 27] FXR and its natural heterodimer partner retinoid X receptor (RXR) were constitutively over‐expressed and a constitutively expressed renilla luciferase was present as internal control for transfection efficiency and cellular health.
LTA4H assay. […] The assay was performed in black polystyrol 96‐well plates in a final volume of 100 μL. Test compound solution in DMSO (1 μL) or DMSO alone as control were incubated with 89 μl protein mixture (containing LTA4H, buffer and Triton‐X‐100). After 30 min, 10 μl of substrate mixture (containing L‐arginin‐7‐amido‐4‐methylcumarine and DMSO in buffer) were added. […] A blank measurement containing no protein was performed and treated as 0 % conversion control. All samples were measured in triplicates and each experiment was conducted in three independent repeats.

[3] = target: T2, recombinant human LTA4H; experiment: Isothermal titration calorimetry on LTA4H; set-up: His-tag (inferred from IMAC on HisTrap); made in house; host or cells: E. coli BL21(DE3)RIPL-Codon Plus; conditions: ITC, 25 °C, 1:1 binding assumed
[4] = target: T1, full-length human FXR; experiment: Full-length FXR:RXR reporter gene assay (BSEP promoter, HeLa, transiently transfected); assay type: cell-based; conditions: mean±S.E.M., n≥3
Experimental: Full‐length FXR:RXR reporter gene assay. HeLa cells were grown in DMEM high glucose supplemented with 10 % FCS, sodium pyruvate (1 mM), penicillin (100 U/mL) and streptomycin (100 μg/mL) at 37 °C and 5 % CO2 and seeded in 96‐well plates 24 h before transfection with a density of 8000 cells per well. 3.5 h before transfection, medium was changed to DMEM high glucose, supplemented with sodium pyruvate (1 mM), penicillin (100 U/mL), streptomycin (100 μg/mL) and 0.5 % charcoal‐stripped FCS. Cells were then transiently transfected with using the calcium phosphate transfection method with pGL3basic‐BSEP[26, 27] (containing a shortened construct of the promotor of the bile salt export protein (BSEP) cloned into the SacI/NheI cleavage site in front of the luciferase gene), pcDNA3‐hFXR[26] and pSG5‐hRXR[38] coding for the full‐length human nuclear receptors FXR and RXRα, and pRL‐SV40 (Promega) for normalization of transfection efficiency and cell growth. 16 h after transfection, medium was changed to DMEM high glucose, supplemented with sodium pyruvate (1 mM), penicillin (100 U/mL), streptomycin (100 μg/mL) and 0.5 % charcoal‐stripped FCS. 24 h after transfection, medium was changed to DMEM without phenol red, supplemented with sodium pyruvate (1 mM), penicillin (100 U/mL), streptomycin (100 μg/mL), L‐glutamine (2 mM) and 0.5 % charcoal‐stripped FCS, now additionally containing 0.1 % DMSO and the respective test compound or 0.1 % DMSO alone as untreated control. Each sample was tested in triplicate wells and each experiment was repeated independently at least three times. Following 24 h incubation with the test compounds, cells were assayed for luciferase activity using Dual‐Glo Luciferase Assay System (Promega) according to the manufacturer's protocol. Luminescence was measured with a Tecan Spark M luminometer (Tecan). Normalization of transfection efficiency and cell growth was done by division of firefly luciferase data by Renilla luciferase data multiplied by 1000 resulting in relative light units (RLU). Fold activation was obtained by dividing the mean RLU of the tested compound at a respective concentration by the mean RLU of untreated control. EC50 and standard error of the mean values were calculated with the mean fold activation values of at least three independent experiments with SigmaPlot 10.0 (Systat Software GmbH, Erkrath, Germany) using a four‐parameter logistic regression.

[5] = full-length FXR reporter gene assay, BSEP promoter, HeLa

Row | IC50 [2] | LTA4H max. inhib. [2] | Kd [3] | Structure (SMILES) | FXR efficacy (maximum FXR activation relative to 3 μM GW4064) ([1]; 3 μM GW4064 = 100 % activation) | EC50 [1, 5] | FXR efficacy (maximum FXR activation relative to 3 μM GW4064) ([4]; 3 μM GW4064 = 100 % activation) | EC50 [4, 5]
1 | 140 ± 10 nM | 98.8±0.1% | ~300 nM | O=C(O)c1cccc(NC(=O)c2ccc(OCCCc3ccccc3)cc2)c1 [compound 8] | 22±1% | 29 ± 6 nM |  | 
2 | 450 ± 20 nM | 98.9±0.1% | ~700 nM | O=C(O)c1ccnc(NC(=O)c2ccc(OCCCc3ccccc3)cc2)c1 [compound 19, 2‐(4‐(3‐Phenylpropoxy)benzamido)isonicotinic acid] |  |  | 21±1% | 460 ± 80 nM
